Relative viability data for four cell lines are collected here from the supplement of paper PMC10307832.

Holding throughout (assay): relative viability (nuclei count vs DMSO), 5 days (fraction); higher = more cells survive
Compound in the assay “Pictilisib + Navitoclax”: CS(=O)(=O)N1CCN(Cc2cc3nc(-c4cccc5[nH]ncc45)nc(N4CCOCC4)c3s2)CC1 [Pictilisib] + CC1(C)CCC(c2ccc(Cl)cc2)=C(CN2CCN(c3ccc(C(=O)NS(=O)(=O)c4ccc(N[C@H](CCN5CCOCC5)CSc5ccccc5)c(S(=O)(=O)C(F)(F)F)c4)cc3)CC2)C1 [Navitoclax] (partner 0.5 µM)
The method, boiled down: (§1)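 Lung cancer cell lines, seeded in 1536-well plates, were treated the following day by pin tool with a single drug or with five library-drug doses (not always all listed) in √10 steps on top of a fixed anchor-drug dose. Cells were fixed and nuclei stained in one step after 5 days, and nuclei were counted. Relative viability is the nuclei count for treated wells divided by that for vehicle wells, reported as medians of duplicate plates.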

Compound in the assay “Pictilisib + Lapatinib”: CS(=O)(=O)N1CCN(Cc2cc3nc(-c4cccc5[nH]ncc45)nc(N4CCOCC4)c3s2)CC1 [Pictilisib] + CS(=O)(=O)CCNCc1ccc(-c2ccc3ncnc(Nc4ccc(OCc5cccc(F)c5)c(Cl)c4)c3c2)o1 [Lapatinib] (partner 2 µM)
The method, boiled down:
as §1

Compound in the assay “Pictilisib + Linsitinib”: CS(=O)(=O)N1CCN(Cc2cc3nc(-c4cccc5[nH]ncc45)nc(N4CCOCC4)c3s2)CC1 [Pictilisib] + C[C@]1(O)C[C@@H](c2nc(-c3ccc4ccc(-c5ccccc5)nc4c3)c3c(N)nccn32)C1 [Linsitinib] (partner 1 µM)
Summed up: as §1

Compound in the assay “MK-2206 + Palbociclib”: NC1(c2ccc(-c3nc4ccn5c(=O)[nH]nc5c4cc3-c3ccccc3)cc2)CCC1 [MK-2206] + CC(=O)c1c(C)c2cnc(Nc3ccc(N4CCNCC4)cn3)nc2n(C2CCCC2)c1=O [Palbociclib] (partner 0.5 µM)
Summed up: as §1

Compound in the assay “MK-2206 + AZD7762”: NC1(c2ccc(-c3nc4ccn5c(=O)[nH]nc5c4cc3-c3ccccc3)cc2)CCC1 [MK-2206] + NC(=O)Nc1cc(-c2cccc(F)c2)sc1C(=O)N[C@H]1CCCNC1 [AZD7762] (partner 0.2 µM)
Summed up:
as §1

Take NCI-H838: the relative viability with Pictilisib + Navitoclax (first compound 0.02 µM) was 1.12; in the assay with Pictilisib + Navitoclax (first compound 0.06325 µM), 1.04; in the assay with Pictilisib + Navitoclax (first compound 0.6325 µM) it was 1.01; in the assay with Pictilisib + Navitoclax (first compound 2 µM), 0.61; with Pictilisib + Lapatinib (first compound 0.02 µM), 1.15; with Pictilisib + Lapatinib (first compound 0.06325 µM) it was 0.875. Besides, the relative viability stood at 0.728 in the assay with Pictilisib + Lapatinib (first compound 0.6325 µM); 0.387 in the assay with Pictilisib + Lapatinib (first compound 2 µM); 1.05 in the assay with Pictilisib + Linsitinib (first compound 0.02 µM); 0.891 with Pictilisib + Linsitinib (first compound 0.06325 µM); 0.891 in the assay with Pictilisib + Linsitinib (first compound 0.6325 µM); 0.448 with Pictilisib + Linsitinib (first compound 2 µM). In addition, the relative viability in the assay with MK-2206 + Palbociclib (first compound 0.01 µM) amounted to 0.223; in the assay with MK-2206 + Palbociclib (first compound 0.03162 µM) it was 0.226; with MK-2206 + Palbociclib (first compound 0.3162 µM), 0.203; in the assay with MK-2206 + Palbociclib (first compound 1 µM) it was 0.193; in the assay with MK-2206 + AZD7762 (first compound 0.01 µM), 0.935; with MK-2206 + AZD7762 (first compound 0.03162 µM) it was 0.872. Also, the relative viability was 0.969 in the assay with MK-2206 + AZD7762 (first compound 0.3162 µM) and 0.906 with MK-2206 + AZD7762 (first compound 1 µM).

Regarding RERF-LC-KJ, the relative viability came to 0.93 with Pictilisib + Navitoclax (first compound 0.02 µM); 0.728 with Pictilisib + Navitoclax (first compound 0.06325 µM); 0.91 in the assay with Pictilisib + Navitoclax (first compound 0.6325 µM); 0.5 in the assay with Pictilisib + Navitoclax (first compound 2 µM); 0.86 with Pictilisib + Lapatinib (first compound 0.02 µM); 0.842 with Pictilisib + Lapatinib (first compound 0.06325 µM). In addition, the relative viability with Pictilisib + Lapatinib (first compound 0.6325 µM) worked out at 0.771; in the assay with Pictilisib + Lapatinib (first compound 2 µM), 0.549; in the assay with Pictilisib + Linsitinib (first compound 0.02 µM), 0.823; in the assay with Pictilisib + Linsitinib (first compound 0.06325 µM) it was 0.881; with Pictilisib + Linsitinib (first compound 0.6325 µM), 0.818; with Pictilisib + Linsitinib (first compound 2 µM) it was 0.618. The relative viability is 0.954 in the assay with MK-2206 + Palbociclib (first compound 0.01 µM); 1.13 with MK-2206 + Palbociclib (first compound 0.03162 µM); 1 with MK-2206 + Palbociclib (first compound 0.3162 µM); 1.06 with MK-2206 + Palbociclib (first compound 1 µM); 0.915 in the assay with MK-2206 + AZD7762 (first compound 0.01 µM); 1.15 with MK-2206 + AZD7762 (first compound 0.03162 µM). The relative viability in the assay with MK-2206 + AZD7762 (first compound 0.3162 µM) worked out at 0.84; in the assay with MK-2206 + AZD7762 (first compound 1 µM) it was 1.01.

Turning to PC-14, the relative viability was found to be 1.03 with Pictilisib + Navitoclax (first compound 0.02 µM); 1.06 in the assay with Pictilisib + Navitoclax (first compound 0.06325 µM); 1.06 in the assay with Pictilisib + Navitoclax (first compound 0.6325 µM); 0.739 in the assay with Pictilisib + Navitoclax (first compound 2 µM); 0.34 with Pictilisib + Lapatinib (first compound 0.02 µM); 0.302 with Pictilisib + Lapatinib (first compound 0.06325 µM). Further, the relative viability with Pictilisib + Lapatinib (first compound 0.6325 µM) came to 0.236; in the assay with Pictilisib + Lapatinib (first compound 2 µM), 0.113; in the assay with Pictilisib + Linsitinib (first compound 0.02 µM) it was 0.934; with Pictilisib + Linsitinib (first compound 0.06325 µM) it was 0.937; in the assay with Pictilisib + Linsitinib (first compound 0.6325 µM), 0.91; with Pictilisib + Linsitinib (first compound 2 µM), 0.588. For the same cell line, the relative viability with MK-2206 + Palbociclib (first compound 0.01 µM) stood at 0.512; in the assay with MK-2206 + Palbociclib (first compound 0.03162 µM), 0.481; with MK-2206 + Palbociclib (first compound 0.3162 µM), 0.589; with MK-2206 + Palbociclib (first compound 1 µM), 0.474; with MK-2206 + AZD7762 (first compound 0.01 µM), 0.326; with MK-2206 + AZD7762 (first compound 0.03162 µM), 0.243. Besides, the values for the relative viability in the assay with MK-2206 + AZD7762 (first compound 0.3162 µM) and with MK-2206 + AZD7762 (first compound 1 µM) were 0.329 and 0.366, respectively.

Regarding NCI-H1395, the relative viability with Pictilisib + Navitoclax (first compound 0.02 µM) was 1.17; with Pictilisib + Navitoclax (first compound 0.06325 µM), 1.27; in the assay with Pictilisib + Navitoclax (first compound 0.6325 µM) it was 0.99; with Pictilisib + Navitoclax (first compound 2 µM), 0.6; in the assay with Pictilisib + Lapatinib (first compound 0.02 µM), 1.18; with Pictilisib + Lapatinib (first compound 0.06325 µM) it was 1.1. The relative viability in the assay with Pictilisib + Lapatinib (first compound 0.6325 µM) stood at 0.884; in the assay with Pictilisib + Lapatinib (first compound 2 µM), 0.563; with Pictilisib + Linsitinib (first compound 0.02 µM) it was 1.15; with Pictilisib + Linsitinib (first compound 0.06325 µM), 1.11; in the assay with Pictilisib + Linsitinib (first compound 0.6325 µM), 0.836; with Pictilisib + Linsitinib (first compound 2 µM), 0.597. Besides, the relative viability was 0.65 in the assay with MK-2206 + Palbociclib (first compound 0.01 µM); 0.664 with MK-2206 + Palbociclib (first compound 0.03162 µM); 0.485 in the assay with MK-2206 + Palbociclib (first compound 0.3162 µM); 0.526 in the assay with MK-2206 + Palbociclib (first compound 1 µM); 0.407 in the assay with MK-2206 + AZD7762 (first compound 0.01 µM); 0.369 in the assay with MK-2206 + AZD7762 (first compound 0.03162 µM). Besides, the relative viability amounted to 0.388 with MK-2206 + AZD7762 (first compound 0.3162 µM) and 0.351 in the assay with MK-2206 + AZD7762 (first compound 1 µM).
